Reference: patent US20260207626A1, “SYNTHETIC TRITERPENOIDS AND COMPOSITIONS THEREOF IN WEIGHT MANAGEMENT, SKELETAL MUSCLE FUNCTION, AND APPETITE SUPPRESSION” (The Board of Regents of the University of Texas System, priority 2022, published 2026)
“Also recorded” adds a separate entry of the source. Marks after values point to notes of the source that are not given here.

Experiments:
[1] = Chow consumption / energy intake of mice fed LFD or HFD with or without CDDO-EA; assay type: in vivo, C57B16/J mice
Protocol: To assess the protective effects of CDDO-EA from obesity and insulin resistance, C57B16/J mice (6-8 weeks old, male, strain #000664, The Jackson Laboratory) were used. The animals were fed a Low Fat diet (LFD) (10% total calories from fat, […]) or a High Fat diet (HFD) (60% of total calories from fat) incorporated with or without CDDO-EA (chow containing 0.04% CDDO-EA) for six weeks.
Energy intake was also measured. Energy intake is determined as a measure of the amount of food consumed by a subject (such as a subject mouse). […] Thus CDDO-EA protects from development of HFD-induced obesity in vivo.
The mice were maintained on one of the 4 food regiment schedules as defined in Example 2. The amount of food consumed by an animal was monitored weekly.

[2] = Serum glucose and insulin, oral glucose tolerance test (OGTT) in mice fed LFD or HFD with or without CDDO-EA; assay type: in vivo, C57B16/J mice
Protocol: Data were statistically analyzed by One-Way ANOVA, Two-Way ANOVA with repeated measures, or Two-Way ANOVA with Tukey's multiple comparison test. Throughout the collection of blood samples, OGTTs, and measurement of bodyweight, mice were unrestrained and awake. Blood samples were collected via tail snip before start of experimental feeding and then every two weeks. Oral glucose tolerance tests (OGTTs) were performed after the six-week experimental feeding, and blood samples were collected via tail snip during the OGTT. For OGTT, mice were given 2 g of glucose/kg of body weight by gavage after a five hour fast (36). Glucose levels were measured using a glucometer (Contour), and insulin concentrations were measured using an ELISA (Mercodia). Mice were weighed once a week. Glucose and insulin serum levels were measured every two weeks.
Glucose and insulin levels were measured in the subject animals to determine if prevention of obesity by CDDO-EA in a high fat diet (HFD) chow regimen and in a low fat diet (LFD) regimen coincided with a reduction in hyperglycemia and hyperinsulinemia.

[3] = tested on: IκB-α (Ser32); assay: Western blot of LPS-induced IκB-α phosphorylation in L6-GLUT4myc myotubes; assay type: cell-based, rat; settings: 500 nM CDDO-EA 1 hr then 100 ng/ml LPS 1 hr
Description: To examine the anti-inflammatory properties of CDDO-EA in skeletal muscle cells, CDDO-EA was examined for its effect on nuclear factor-kappa B (NF-κB) activity in L6-GLUT4myc muscle cells, in the context of LPS-mediated inflammatory responses in L6-GLUT4myc muscle cells. All experiments were independently repeated one to four times and done in duplicate or triplicate, and data were statistically analyzed by One-Way ANOVA or unpaired t-test, two tailed.
Cells were studied with vehicle alone [0.125% dimethyl sulfoxide (DMSO)] and LPS with and without CDDO-EA. […]
Western blotting and subcellular fractionation: L6-GLUT4myc myoblasts (4×10^4 cells/ml, 2 ml/well) were seeded onto 6-well dishes and differentiated with differentiation medium for 7 days. […] Protein concentrations were determined using the Pierce BCA Protein Assay (Thermo Fisher Scientific), and equal amounts of protein were separated by electrophoresis and subsequently transferred to nitrocellulose membranes. Membranes were analyzed using the following antibodies from Cell Signaling Technology: phosphorylated NF-κB (Ser536) (93 H1, cat #3033,1:1000), phosphorylated IKB-α (Ser32) (14D4, cat #2859,1:1000), IKB-α (44D4, cat #4812, 1:1000), phosphorylated p38 (Thr180/Tyr182) (cat #9211, 1:1000), p38 (cat #9212, 1:1000). […] Bands were quantitated using ImageQuant (GE Healthcare). […]

CCNC(=O)[C@]12CCC(C)(C)C[C@H]1C1C(=O)C=C3[C@@]4(C)C=C(C#N)C(=O)C(C)(C)[C@@H]4CC[C@@]3(C)[C@]1(C)CC2 (stereo partly drawn) [CDDO-EA, (4aS,6aR,6bS,8aR,12aS,14bS)-11-cyano-N-ethyl-2,2,6a,6b,9,9,12a-heptamethyl-10,14-dioxo-1,3,4,5,6,6a,6b, 7,8,8a,9,10,12a, 14,14a, 14b-hexadecahydropicene-4a (2H)-carboxamide]
Grams of Chow per Week Consumed by Animals ([1]; HFD + CDDO-EA (0.04%), week 1): 18.0 ± 0.9 Grams of Chow per Week | Grams of Chow per Week Consumed by Animals ([1]; HFD + CDDO-EA (0.04%), week 2): 18.4 ± 1.0 Grams of Chow per Week | Grams of Chow per Week Consumed by Animals ([1]; HFD + CDDO-EA (0.04%), week 3): 16.8 ± 0.5 Grams of Chow per Week | Grams of Chow per Week Consumed by Animals ([1]; HFD + CDDO-EA (0.04%), week 4): 15.8 ± 0.4* * Grams of Chow per Week | Grams of Chow per Week Consumed by Animals ([1]; HFD + CDDO-EA (0.04%), week 5): 16.2 ± 0.5 Grams of Chow per Week | Grams of Chow per Week Consumed by Animals ([1]; HFD + CDDO-EA (0.04%), week 6): 16.6 ± 0.4 Grams of Chow per Week | energy intake (caloric food consumption) ([1]; HFD chow mixed with CDDO-EA): decreased energy intake; also recorded: inhibits energy intake | average weekly chow consumption ([1]; HFD+CDDO-EA group, all six weeks): 17 g | Grams of Chow per Week Consumed by Animals ([1]; LFD + CDDO-EA (0.04%), week 1): 19.2 ± 0.6 Grams of Chow per Week | Grams of Chow per Week Consumed by Animals ([1]; LFD + CDDO-EA (0.04%), week 2): 21.5 ± 0.6 Grams of Chow per Week | Grams of Chow per Week Consumed by Animals ([1]; LFD + CDDO-EA (0.04%), week 3): 21.1 ± 0.7 Grams of Chow per Week | Grams of Chow per Week Consumed by Animals ([1]; LFD + CDDO-EA (0.04%), week 4): 20.0 ± 0.2 Grams of Chow per Week | Grams of Chow per Week Consumed by Animals ([1]; LFD + CDDO-EA (0.04%), week 5): 21.3 ± 0.3 Grams of Chow per Week | Grams of Chow per Week Consumed by Animals ([1]; LFD + CDDO-EA (0.04%), week 6): 19.8 ± 0.4 Grams of Chow per Week | more food consumed by HFD-fed animals than by HFD plus CDDO-EA-fed animals ([1]; week 3): 20% | more food consumed by HFD-alone animals than by HFD + CDDO-EA animals ([1]; week one): at least 10% | OGTT serum glucose ([2]; HFD + CDDO-EA, after 6 weeks (FIG. 6B)): prevented increased serum glucose; also recorded: significantly decrease to glucose levels before the HFD experimental feeding; also recorded: prevents glucose intolerance | OGTT serum insulin ([2]; HFD + CDDO-EA, after 6 weeks (FIG. 7B)): prevented increased serum glucose (FIG. 6B) and insulin concentrations; also recorded: insulin levels did not increase significantly; also recorded: prevents hyperinsulinemia | serum glucose levels during feeding ([2]; HFD with CDDO-EA, weeks 0-6 (FIG. 13A)): did not increase throughout the six-week feeding; also recorded: prevents glucose intolerance | serum insulin levels during feeding ([2]; HFD with CDDO-EA, weeks 0-6 (FIG. 13B)): remained significantly higher in mice fed only a HFD compared to mice fed a HFD with CDDO-EA; also recorded: prevents hyperinsulinemia | serum glucose levels ([2]; LFD + CDDO-EA, after 6 weeks (FIG. 6A)): no significant increase or decrease in serum glucose levels; also recorded: did not affect glucose and insulin levels of mice fed LFD with CDDO-EA | insulin levels ([2]; LFD + CDDO-EA, after 6 weeks (FIG. 7A)): overlap with the insulin levels before experimental feeding; also recorded: did not affect glucose and insulin levels of mice fed LFD with CDDO-EA | LPS-induced IκB-α phosphorylation [3]: decreased LPS-induced NF-κB and nuclear factor of kappa light polypeptide gene enhancer in B-cells inhibitor-alpha (IκB) phosphorylation; also recorded: inhibited the LPS-induced phosphorylation of IκB-α; also recorded: inhibits lipopolysaccharide (LPS)-induced NF-κB and Inhibitory kappa B alpha (IκB-α) phosphorylation
